Measured values published in US10479780B2, “Aminopyrazole derivatives” (Chugai Seiyaku Kabushiki Kaisha, priority 2015, dated 2019).
Where two headings read alike, the source gives them in different places.

Assays:
Assay type in all cases: biochemical
[1] = target: T1, human Yes1 enzyme (Homo sapiens, UniProt P07947); test: Yes1 enzyme inhibitory activity (time-resolved fluorometry, biotinylated peptide phosphorylation); details: read-out: YES_IC50
T1 construct: made in house
Method in brief: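 Inhibition was expressed against a compound-free control to give IC50, using TR-FRET read-out (Eu-cryptate anti-pTyr antibody, streptavidin-XL665).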

[2] = target: T2, human Src enzyme (Homo sapiens, UniProt P12931); test: Src enzyme inhibitory activity (time-resolved fluorometry, biotinylated peptide phosphorylation); details: read-out: SRC_IC50
T2 construct: purchased Carna Biosciences, Inc. 08-173
T2 sequence (P12931 whole entry): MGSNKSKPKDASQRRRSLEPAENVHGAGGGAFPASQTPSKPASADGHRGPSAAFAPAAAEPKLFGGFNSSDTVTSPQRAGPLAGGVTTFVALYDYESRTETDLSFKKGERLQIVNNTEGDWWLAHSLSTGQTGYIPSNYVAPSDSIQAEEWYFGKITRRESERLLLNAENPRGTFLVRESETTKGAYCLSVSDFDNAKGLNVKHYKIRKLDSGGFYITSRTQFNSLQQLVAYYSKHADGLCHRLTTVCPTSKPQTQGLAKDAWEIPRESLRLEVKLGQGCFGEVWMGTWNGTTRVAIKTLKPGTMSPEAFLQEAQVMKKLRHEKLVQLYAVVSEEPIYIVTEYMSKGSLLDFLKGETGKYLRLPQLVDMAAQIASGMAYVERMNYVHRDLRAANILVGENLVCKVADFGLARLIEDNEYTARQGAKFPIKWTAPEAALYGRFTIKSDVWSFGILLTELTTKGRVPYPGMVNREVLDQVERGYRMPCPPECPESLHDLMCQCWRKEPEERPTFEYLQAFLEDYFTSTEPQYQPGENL
Method in brief: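 Compounds were tested for blocking tyrosine phosphorylation of a biotinylated peptide substrate by recombinant human Src. Phosphorylated product was quantified by time-resolved fluorometry using europium cryptate and XL665 conjugates, and IC50 was calculated against the compound-free control.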

[3] = target: T3, human Lck enzyme (Homo sapiens, UniProt P06239); test: Lck enzyme inhibitory activity (time-resolved fluorometry, biotinylated peptide phosphorylation); details: read-out: LCK_IC50
T3 construct: purchased Carna Biosciences, Inc. 08-170
T3 sequence (P06239 whole entry): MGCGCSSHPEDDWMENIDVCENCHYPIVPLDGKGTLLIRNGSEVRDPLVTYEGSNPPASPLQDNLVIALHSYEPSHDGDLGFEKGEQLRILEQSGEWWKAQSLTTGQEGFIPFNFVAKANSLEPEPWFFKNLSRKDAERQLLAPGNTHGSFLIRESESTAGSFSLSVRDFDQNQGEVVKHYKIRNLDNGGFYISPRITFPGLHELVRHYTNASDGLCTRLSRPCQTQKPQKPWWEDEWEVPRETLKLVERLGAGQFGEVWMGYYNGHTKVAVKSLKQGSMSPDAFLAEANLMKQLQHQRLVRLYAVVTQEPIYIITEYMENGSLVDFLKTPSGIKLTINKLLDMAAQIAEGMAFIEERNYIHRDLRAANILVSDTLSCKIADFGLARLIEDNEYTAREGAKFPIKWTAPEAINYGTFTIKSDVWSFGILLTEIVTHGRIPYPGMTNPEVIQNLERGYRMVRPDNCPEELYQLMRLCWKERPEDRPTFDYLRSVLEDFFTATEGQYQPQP
Method in brief: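 Readout pairs a europium cryptate-labelled anti-phosphotyrosine antibody with XL665-streptavidin, measured by time-resolved fluorescence. IC50 derived from percent inhibition against untreated controls.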

[4] = biotinylated peptide phosphorylation

T1 sequence (P07947 whole entry): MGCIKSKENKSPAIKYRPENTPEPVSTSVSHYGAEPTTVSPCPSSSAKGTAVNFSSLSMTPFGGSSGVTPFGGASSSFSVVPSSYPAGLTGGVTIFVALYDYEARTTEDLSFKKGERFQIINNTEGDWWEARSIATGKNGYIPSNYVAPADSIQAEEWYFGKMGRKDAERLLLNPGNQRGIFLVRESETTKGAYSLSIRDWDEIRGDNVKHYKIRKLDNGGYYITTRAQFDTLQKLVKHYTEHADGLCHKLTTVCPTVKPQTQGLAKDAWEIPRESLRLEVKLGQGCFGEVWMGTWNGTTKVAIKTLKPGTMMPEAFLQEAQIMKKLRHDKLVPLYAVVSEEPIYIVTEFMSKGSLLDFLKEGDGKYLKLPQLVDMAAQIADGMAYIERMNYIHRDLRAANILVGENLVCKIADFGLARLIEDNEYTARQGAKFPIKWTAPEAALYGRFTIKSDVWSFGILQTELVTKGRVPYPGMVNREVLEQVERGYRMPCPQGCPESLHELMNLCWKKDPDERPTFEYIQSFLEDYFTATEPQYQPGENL

| Structure (SMILES) | IC50 [1] [nM] | IC50 [2] [nM] | IC50 [3] [nM] | IC50 [1, 4] [nM] | IC50 [2, 4] [nM] | IC50 [3, 4] [nM] |
| --- | --- | --- | --- | --- | --- | --- |
| Cc1cc(-n2ncc(C(=O)c3cc4cc(OC5CCN(C6CCCC6)CC5)c(-c5ccccc5F)cc4[nH]3)c2N)ccc1Oc1ccccc1F [Example 5-1-308, [5-amino-1-[4-(2-fluorophenoxy)-3-methylphenyl]pyrazol-4-yl]-[5-(1-cyclopentylpiperidin-4-yl)oxy-6-(2-fluorophenyl)-1H-indol-2-yl]methanone] | 7.7 | 1300 | 200 | – | – | – |
| COc1cc2cc(C(=O)c3cnn(-c4c(C)cc(Oc5ccccc5F)cc4F)c3N)[nH]c2cc1NS(=O)(=O)CC(=O)NC(C)C [Example 5-1-137, 2-[[2-[5-amino-1-[2-fluoro-4-(2-fluorophenoxy)-6-methylphenyl]pyrazole-4-carbonyl]-5-methoxy-1H-indol-6-yl]sulfamoyl]-N-propan-2-ylacetamide] | 1.3 | 41 | 29 | – | – | – |
| Cc1cc(Oc2ccccc2F)ccc1-n1ncc(C(=O)c2cc3cc(F)c(NS(=O)(=O)c4cccc(C#N)c4)cc3[nH]2)c1N [Example 5-1-490, N-[2-[5-amino-1-[4-(2-fluorophenoxy)-2-methylphenyl]pyrazole-4-carbonyl]-5-fluoro-1H-indol-6-yl]-3-cyanobenzenesulfonamide] | – | – | – | 3.7 | 430 | 110 |
| Cc1cc2cc(C(=O)c3cnn(-c4c(C)cc(Oc5ccccc5F)cc4F)c3N)[nH]c2cc1NS(=O)(=O)N1CCOCC1 [Example 4-2-107, N-[2-[5-amino-1-[2-fluoro-4-(2-fluorophenoxy)-6-methylphenyl]pyrazole-4-carbonyl]-5-methyl-1H-indol-6-yl]morpholine-4-sulfonamide] | – | – | – | 2.4 | 250 | 89 |
| Cc1cc(Oc2ccccc2F)ncc1-n1ncc(C(=O)c2cc3cc(F)c(NS(=O)(=O)c4cccc(Cl)n4)cc3[nH]2)c1N [Example 5-1-529, N-[2-[5-amino-1-[6-(2-fluorophenoxy)-4-methylpyridin-3-yl]pyrazole-4-carbonyl]-5-fluoro-1H-indol-6-yl]-6-chloropyridine-2-sulfonamide] | – | – | – | 8.6 | 840 | 260 |
| Cc1cc2cc(C(=O)c3cnn(-c4cnc(Oc5c(F)cccc5F)cc4C)c3N)[nH]c2cc1N1C(=O)NC2(CCN(C3COC3)CC2)C1=O [Example 5-1-360, 3-[2-[5-amino-1-[6-(2,6-difluorophenoxy)-4-methylpyridin-3-yl]pyrazole-4-carbonyl]-5-methyl-1H-indol-6-yl]-8-(oxetan-3-yl)-1,3,8-triazaspiro[4.5]decane-2,4-dione] | 2.2 | 19 | 6.3 | – | – | – |
| Cc1cc2cc(C(=O)c3cnn(-c4cnc(Oc5ccccc5F)cc4C)c3N)[nH]c2cc1NS(=O)(=O)N1CCOCC1 [Example 4-2-108, N-[2-[5-amino-1-[6-(2-fluorophenoxy)-4-methylpyridin-3-yl]pyrazole-4-carbonyl]-5-methyl-1H-indol-6-yl]morpholine-4-sulfonamide] | – | – | – | 1 | 94 | 31 |
| Cc1cnc(F)c(S(=O)(=O)Nc2cc3[nH]c(C(=O)c4cnn(-c5cnc(Oc6c(F)cccc6F)cc5C)c4N)cc3cc2C)c1 [Example 5-1-521, N-[2-[5-amino-1-[6-(2,6-difluorophenoxy)-4-methylpyridin-3-yl]pyrazole-4-carbonyl]-5-methyl-1H-indol-6-yl]-2-fluoro-5-methylpyridine-3-sulfonamide] | – | – | – | 5.8 | 470 | 180 |
| Cc1cc(Oc2c(F)cccc2F)ncc1-n1ncc(C(=O)c2cc3cc(OC4CCN(CCO)CC4)c(Br)cc3[nH]2)c1N [Example 5-1-226, [5-amino-1-[6-(2,6-difluorophenoxy)-4-methylpyridin-3-yl]pyrazol-4-yl]-[6-bromo-5-[1-(2-hydroxyethyl)piperidin-4-yl]oxy-1H-indol-2-yl]methanone] | 0.34 | 3.3 | 2 | – | – | – |
| Cc1cc(Oc2ccccc2F)ccc1-n1ncc(C(=O)c2cc3cc(OC4CCN(C(C)C)CC4)c(N4CCC(N5CCOCC5)CC4)cc3[nH]2)c1N [Example 5-1-194, [5-amino-1-[4-(2-fluorophenoxy)-2-methylphenyl]pyrazol-4-yl]-[6-(4-morpholin-4-ylpiperidin-1-yl)-5-(1-propan-2-ylpiperidin-4-yl)oxy-1H-indol-2-yl]methanone] | 0.35 | 1.5 | 1.2 | – | – | – |
| Cc1cc2cc(C(=O)c3cnn(-c4cnc(Oc5c(F)cccc5F)cc4C)c3N)[nH]c2cc1NS(=O)(=O)C1CCCCC1 [Example 5-1-314, N-[2-[5-amino-1-[6-(2,6-difluorophenoxy)-4-methylpyridin-3-yl]pyrazole-4-carbonyl]-5-methyl-1H-indol-6-yl]cyclohexanesulfonamide] | 9.6 | 480 | 150 | – | – | – |
| Cc1cc(Oc2c(F)cccc2F)ncc1-n1ncc(C(=O)c2cc3cc(OCC(F)F)c(NS(=O)(=O)CCC(F)F)cc3[nH]2)c1N [Example 4-24-033, N-[2-[5-amino-1-[6-(2,6-difluorophenoxy)-4-methylpyridin-3-yl]pyrazole-4-carbonyl]-5-(2,2-difluoroethoxy)-1H-indol-6-yl]-3,3-difluoropropane-1-sulfonamide] | – | – | – | 4.9 | 88 | 16 |
| Cc1cc2cc(C(=O)c3cnn(-c4cnc(Oc5ccccc5F)cc4C)c3N)[nH]c2cc1NS(=O)(=O)c1cc(C#N)ccn1 [Example 5-1-478, N-[2-[5-amino-1-[6-(2-fluorophenoxy)-4-methylpyridin-3-yl]pyrazole-4-carbonyl]-5-methyl-1H-indol-6-yl]-4-cyanopyridine-2-sulfonainide] | – | – | – | 4.8 | 280 | 77 |
| CCc1cc2cc(C(=O)c3cnn(-c4cnc(Oc5c(F)cccc5F)cc4C)c3N)[nH]c2cc1NS(C)(=O)=O [Example 5-1-141, N-[2-[5-amino-1-[6-(2,6-difluorophenoxy)-4-methylpyridin-3-yl]pyrazole-4-carbonyl]-5-ethyl-1H-indol-6-yl]methanesulfonamide] | 2.4 | 75 | 27 | – | – | – |
| Cc1cc(Oc2c(F)cccc2F)ncc1-n1ncc(C(=O)c2cc3cc(F)c(NS(=O)(=O)c4cccc(F)n4)cc3[nH]2)c1N [Example 5-1-518, N-[2-[5-amino-1-[6-(2,6-difluorophenoxy)-4-methylpyridin-3-yl]pyrazole-4-carbonyl]-5-fluoro-1H-indol-6-yl]-6-fluoropyridine-2-sulfonamide] | – | – | – | 5.8 | 570 | 82 |
| Cc1cc2cc(C(=O)c3cnn(-c4cnc(Oc5c(F)cccc5F)cc4C)c3N)[nH]c2cc1NS(=O)(=O)CCCF [Example 4-2-073, N-[2-[5-amino-1-[6-(2,6-difluorophenoxy)-4-methylpyridin-3-yl]pyrazole-4-carbonyl]-5-methyl-1H-indol-6-yl]-3-fluoropropane-1-sulfonamide] | – | – | – | 3.1 | 37 | 19 |
| Cc1cc2cc(C(=O)c3cnn(-c4cnc(Oc5ccccc5F)cc4C)c3N)[nH]c2cc1NS(=O)(=O)CCCF [Example 4-2-072, N-[2-[5-amino-1-[6-(2-fluorophenoxy)-4-methylpyridin-3-yl]pyrazole-4-carbonyl]-5-methyl-1H-indol-6-yl]-3-fluoropropane-1-sulfonamide] | – | – | – | 1.8 | 88 | 20 |
| Nc1c(C(=O)c2cc3cc(F)c(NS(=O)(=O)C4CC4)cc3[nH]2)cnn1-c1c(F)cc(Oc2ccccc2F)cc1F [Example 5-1-019, N-[2-[5-amino-1-[2,6-difluoro-4-(2-fluorophenoxy)phenyl]pyrazole-4-carbonyl]-5-fluoro-1H-indol-6-yl] cyclopropanesulfonamide] | 2.8 | 120 | 54 | – | – | – |
| Cc1cc(-n2ncc(C(=O)c3cc4cc(N5CCOCC5)c(Br)cc4[nH]3)c2N)ccc1Oc1ccccc1F [Example 5-1-151, [5-amino-1-[4-(2-fluorophenoxy)-3-methylphenyl]pyrazol-4-yl]-(6-bromo-5-morpholin-4-yl-1H-indol-2-yl)methanone] | 2.9 | 600 | 80 | – | – | – |
| Cc1cc(-n2ncc(C(=O)c3cc4cc(OC5CCN(C(C)C)CC5)c(-c5cnn(C)c5)cc4[nH]3)c2N)ccc1Oc1ccccc1F [Example 5-1-236, (5-amino-1-(4-(2-fluorophenoxy)-3-methylphenyl)-1H-pyrazol-4-yl)(5-((1-isopropylpiperidin-4-yl)oxy)-6-(1-methyl-1H-pyrazol-4-yl)-1H-indol-2-yl)methanone] | 1.5 | 140 | 41 | – | – | – |
| Cc1cc(Oc2c(F)cccc2F)ncc1-n1ncc(C(=O)c2cc3cc(OC4CCN(C5CS(=O)(=O)C5)CC4)c(-c4cncnc4)cc3[nH]2)c1N [Example 5-1-284, [5-amino-1-[6-(2,6-difluorophenoxy)-4-methylpyridin-3-yl]pyrazol-4-yl]-[5-[1-(1,1-dioxothietan-3-yl)piperidin-4-yl]oxy-5-pyrimidin-5-yl-1H-indol-2-yl]methanone] | 1.1 | 11 | 6.9 | – | – | – |
| CS(=O)(=O)Nc1cc2[nH]c(C(=O)c3cnn(-c4c(Cl)cc(Oc5ccccc5F)cc4Cl)c3N)cc2cc1F [Example 5-1-023, N-[2-[5-amino-1-[2,6-dichloro-4-(2-fluorophenoxy)phenyl]pyrazole-4-carbonyl]-5-fluoro-1H-indol-6-yl]methanesulfonamide] | 16 | 240 | 64 | – | – | – |
